Data from PubChem BioAssay (NCI).
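Method: 48-hour compound exposure of cells in 96-well plates, five concentrations, linear interpolation of endpoints. GI50 marks 50% less growth. TGI: concentration producing complete growth inhibition.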

Legend:
Experiment in all cases: NCI tumour cell line growth inhibition, 48 h
HT29 colon = test system: HT29 colon
NCI-H522 lung = test system: NCI-H522 lung
HOP-62 NSCLC = test system: HOP-62 NSCLC
OVCAR-4 ovarian = test system: OVCAR-4 ovarian
RXF 393 renal = test system: RXF 393 renal
RPMI-8226 leukemia = test system: RPMI-8226 leukemia
SNB-19 CNS = test system: SNB-19 CNS
PC-3 prostate = test system: PC-3 prostate
A549 NSCLC = test system: A549 NSCLC
UACC-257 melanoma = test system: UACC-257 melanoma
HS 578T breast = test system: HS 578T breast
SF-295 CNS = test system: SF-295 CNS
A498 renal = test system: A498 renal
HOP-92 NSCLC = test system: HOP-92 NSCLC
HCC-2998 colon = test system: HCC-2998 colon
NCI-H23 lung = test system: NCI-H23 lung
NCI-H226 lung = test system: NCI-H226 lung
MOLT-4 leukemia = test system: MOLT-4 leukemia
NCI-H460 lung = test system: NCI-H460 lung
MDA-MB-231 breast = test system: MDA-MB-231 breast
NCI/ADR-RES ovarian = test system: NCI/ADR-RES ovarian
SW-620 colon = test system: SW-620 colon
DU-145 prostate = test system: DU-145 prostate
ACHN renal = test system: ACHN renal
SK-OV-3 ovarian = test system: SK-OV-3 ovarian
MDA-MB-435 = test system: MDA-MB-435
MCF7 breast = test system: MCF7 breast
IGROV1 ovarian = test system: IGROV1 ovarian
CCRF-CEM leukemia = test system: CCRF-CEM leukemia
SNB-75 CNS = test system: SNB-75 CNS
MALME-3M melanoma = test system: MALME-3M melanoma
SF-268 CNS = test system: SF-268 CNS
SR leukemia = test system: SR leukemia
M14 melanoma = test system: M14 melanoma
EKVX NSCLC = test system: EKVX NSCLC
SK-MEL-5 melanoma = test system: SK-MEL-5 melanoma
TK-10 renal = test system: TK-10 renal
OVCAR-3 ovarian = test system: OVCAR-3 ovarian
K-562 leukemia = test system: K-562 leukemia
CAKI-1 renal = test system: CAKI-1 renal
SK-MEL-2 melanoma = test system: SK-MEL-2 melanoma
SF-539 CNS = test system: SF-539 CNS
LOX IMVI melanoma = test system: LOX IMVI melanoma
UACC-62 melanoma = test system: UACC-62 melanoma
BT-549 breast = test system: BT-549 breast
OVCAR-8 ovarian = test system: OVCAR-8 ovarian
T-47D breast = test system: T-47D breast
OVCAR-5 ovarian = test system: OVCAR-5 ovarian
KM12 colon = test system: KM12 colon
UO-31 renal = test system: UO-31 renal
HCT-15 colon = test system: HCT-15 colon
HCT-116 colon = test system: HCT-116 colon
786-0 renal = test system: 786-0 renal
SK-MEL-28 melanoma = test system: SK-MEL-28 melanoma
U251 CNS = test system: U251 CNS
HL-60(TB) leukemia = test system: HL-60(TB) leukemia
SN12C renal = test system: SN12C renal
COLO 205 colon = test system: COLO 205 colon

Structure (SMILES): Nc1nc2c(c3cnccc13)C(c1cccc(Br)c1)Cc1cnccc1-2 (stereo unspecified)
- GI50 (HT29 colon): 341 nM
- TGI (HT29 colon): 1790 nM
- GI50 (NCI-H522 lung): 214 nM
- TGI (NCI-H522 lung): 620 nM
- GI50 (HOP-62 NSCLC): 465 nM
- TGI (HOP-62 NSCLC): 18900 nM
- GI50 (OVCAR-4 ovarian): 1730 nM
- TGI (OVCAR-4 ovarian): 34100 nM
- GI50 (RXF 393 renal): 288 nM
- TGI (RXF 393 renal): 953 nM
- GI50 (RPMI-8226 leukemia): 392 nM
- TGI (RPMI-8226 leukemia): 12300 nM
- GI50 (SNB-19 CNS): 410 nM
- TGI (SNB-19 CNS): 15200 nM
- GI50 (PC-3 prostate): 460 nM
- TGI (PC-3 prostate): 14000 nM
- GI50 (A549 NSCLC): 627 nM
- TGI (A549 NSCLC): 13600 nM
- GI50 (UACC-257 melanoma): 12100 nM
- TGI (UACC-257 melanoma): 27000 nM
- GI50 (HS 578T breast): 423 nM
- TGI (HS 578T breast): 29200 nM
- GI50 (SF-295 CNS): 271 nM
- TGI (SF-295 CNS): 1950 nM
- GI50 (A498 renal): 233 nM
- TGI (A498 renal): 824 nM
- GI50 (HOP-92 NSCLC): 639 nM
- TGI (HOP-92 NSCLC): 16700 nM
- GI50 (HCC-2998 colon): 3620 nM
- TGI (HCC-2998 colon): 18800 nM
- GI50 (NCI-H23 lung): 635 nM
- TGI (NCI-H23 lung): 14100 nM
- GI50 (NCI-H226 lung): 949 nM
- TGI (NCI-H226 lung): 18900 nM
- GI50 (MOLT-4 leukemia): 418 nM
- TGI (MOLT-4 leukemia): 12100 nM
- GI50 (NCI-H460 lung): 370 nM
- TGI (NCI-H460 lung): 11500 nM
- GI50 (MDA-MB-231 breast): 1110 nM
- TGI (MDA-MB-231 breast): 15700 nM
- GI50 (NCI/ADR-RES ovarian): 323 nM
- TGI (NCI/ADR-RES ovarian): 10200 nM
- GI50 (SW-620 colon): 420 nM
- TGI (SW-620 colon): 17400 nM
- GI50 (DU-145 prostate): 344 nM
- TGI (DU-145 prostate): 11300 nM
- GI50 (ACHN renal): 1100 nM
- TGI (ACHN renal): 12500 nM
- GI50 (SK-OV-3 ovarian): 586 nM
- TGI (SK-OV-3 ovarian): 17100 nM
- GI50 (MDA-MB-435): 154 nM
- TGI (MDA-MB-435): 571 nM
- GI50 (MCF7 breast): 324 nM
- TGI (MCF7 breast): 12200 nM
- GI50 (IGROV1 ovarian): 850 nM
- TGI (IGROV1 ovarian): 17800 nM
- GI50 (CCRF-CEM leukemia): 373 nM
- TGI (CCRF-CEM leukemia): 14100 nM
- GI50 (SNB-75 CNS): 243 nM
- TGI (SNB-75 CNS): 12700 nM
- GI50 (MALME-3M melanoma): 515 nM
- TGI (MALME-3M melanoma): 18700 nM
- GI50 (SF-268 CNS): 852 nM
- TGI (SF-268 CNS): 18300 nM
- GI50 (SR leukemia): 243 nM
- TGI (SR leukemia): > 100000 nM
- GI50 (M14 melanoma): 215 nM
- TGI (M14 melanoma): 615 nM
- GI50 (EKVX NSCLC): 487 nM
- TGI (EKVX NSCLC): 21500 nM
- GI50 (SK-MEL-5 melanoma): 475 nM
- TGI (SK-MEL-5 melanoma): 3450 nM
- GI50 (TK-10 renal): 613 nM
- TGI (TK-10 renal): 13600 nM
- GI50 (OVCAR-3 ovarian): 339 nM
- TGI (OVCAR-3 ovarian): 14100 nM
- GI50 (K-562 leukemia): 346 nM
- TGI (K-562 leukemia): 17400 nM
- GI50 (CAKI-1 renal): 422 nM
- TGI (CAKI-1 renal): 14400 nM
- GI50 (SK-MEL-2 melanoma): 303 nM
- TGI (SK-MEL-2 melanoma): 1910 nM
- GI50 (SF-539 CNS): 235 nM
- TGI (SF-539 CNS): 821 nM
- GI50 (LOX IMVI melanoma): 427 nM
- TGI (LOX IMVI melanoma): 13700 nM
- GI50 (UACC-62 melanoma): 406 nM
- TGI (UACC-62 melanoma): 14200 nM
- GI50 (BT-549 breast): 526 nM
- TGI (BT-549 breast): 5480 nM
- GI50 (OVCAR-8 ovarian): 780 nM
- TGI (OVCAR-8 ovarian): 44600 nM
- GI50 (T-47D breast): 411 nM
- TGI (T-47D breast): 40400 nM
- GI50 (OVCAR-5 ovarian): 875 nM
- TGI (OVCAR-5 ovarian): 21800 nM
- GI50 (KM12 colon): 436 nM
- TGI (KM12 colon): 13600 nM
- GI50 (UO-31 renal): 1200 nM
- TGI (UO-31 renal): 15500 nM
- GI50 (HCT-15 colon): 362 nM
- TGI (HCT-15 colon): 10500 nM
- GI50 (HCT-116 colon): 442 nM
- TGI (HCT-116 colon): 11400 nM
- GI50 (786-0 renal): 482 nM
- TGI (786-0 renal): 12600 nM
- GI50 (SK-MEL-28 melanoma): 3810 nM
- TGI (SK-MEL-28 melanoma): 20300 nM
- GI50 (U251 CNS): 342 nM
- TGI (U251 CNS): 2970 nM
- GI50 (HL-60(TB) leukemia): 329 nM
- TGI (HL-60(TB) leukemia): 961 nM
- GI50 (SN12C renal): 877 nM
- TGI (SN12C renal): 22900 nM
- GI50 (COLO 205 colon): 273 nM
- TGI (COLO 205 colon): 1070 nM
